Where a SMILES comes first, the peptide text is derived from it. Bridges are numbered along the chain shown (N, C = ends). [ ]: non-standard residue; d: D form. The star is where a group is joined. hPhe(3-Cl-4-CF3) = N[C@@H](CCc1ccc(C(F)(F)F)c(Cl)c1)C(=O)O; NPrPhe(4-CF3) = CCCN[C@@H](Cc1ccc(C(F)(F)F)cc1)C(=O)O; NMeGly(cPent) = CN[C@H](C(=O)O)C1CCCC1; Pro(4,4-F2) = O=C(O)[C@@H]1CC(F)(F)CN1; Pro(4,4-Me2) = CC1(C)CN[C@H](C(=O)O)C1; Hyp = O=C(O)[C@@H]1C[C@@H](O)CN1; NMeD = CN[C@@H](CC(=O)O)C(=O)O; NMeL = CN[C@@H](CC(C)C)C(=O)O; NMeNva = CCC[C@H](NC)C(=O)O; Morpholide = C1CN(*)CCO1; Ac5c = NC1(C(=O)O)CCCC1; Ac4c = NC1(C(=O)O)CCC1; NPrGly = CCCNCC(=O)O; NEtG = CCNCC(=O)O; Sar = CNCC(=O)O
What was measured:
HRAS wild-type protein = HRAS wild-type protein (Homo sapiens, UniProt P01112); assay: Binding to HRAS by surface plasmon resonance (SPR), KD and KD ratio to KRAS
In short: (§1)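 Single-cycle kinetics on GDP-loaded biotin-Avi RAS captured to ~100–300 RU; 75 s ascending injections, 100 µL/min, 30°C. HBS pH 7.4 + 10 mM MgCl2/10 µM GDP/4% DMSO. 1:1 fit, KD.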

[1] = tested on: human lung cancer strain NCI-H441; format: cell-based
In short: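 Proliferation was scored by […] measured after the reagent was added to cultures kept at 37°C in 5% carbon dioxide.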

[2] = biological target: GDP-bound NRAS wild-type protein (Homo sapiens, UniProt P01111); assay: Binding to NRAS by surface plasmon resonance (SPR), KD and KD ratio to KRAS
In short: as §1

[3] = ratio of the KD value with respect to HRAS wild-type protein to the KD value with respect to KRAS
[4] = ratio of the KD value with respect to GDP-bound NRAS wild-type protein to the KD value with respect to KRAS
[5] = ratio of KD for HRAS wild-type protein to KD for KRAS
[6] = ratio of KD for GDP-bound NRAS wild-type protein to KD for KRAS

Sequence of HRAS wild-type protein (P01112 whole entry): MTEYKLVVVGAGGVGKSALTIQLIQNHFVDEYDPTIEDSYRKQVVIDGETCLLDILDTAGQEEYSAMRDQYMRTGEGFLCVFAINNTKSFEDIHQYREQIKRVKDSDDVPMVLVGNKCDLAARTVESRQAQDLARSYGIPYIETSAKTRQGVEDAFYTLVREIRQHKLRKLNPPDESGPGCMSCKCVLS
Sequence of GDP-bound NRAS wild-type protein (P01111 whole entry): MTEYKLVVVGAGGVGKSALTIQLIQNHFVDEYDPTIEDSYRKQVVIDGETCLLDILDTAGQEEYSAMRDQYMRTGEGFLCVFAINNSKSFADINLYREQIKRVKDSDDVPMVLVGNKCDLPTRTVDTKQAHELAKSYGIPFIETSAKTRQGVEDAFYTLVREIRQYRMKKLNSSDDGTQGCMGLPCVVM

SMILES | HRAS /KRAS (HRAS wild-type protein; [3]) | IC50 [1] | NRAS /KRAS [2, 4] | HRAS /KRAS (HRAS wild-type protein; [5]) | NRAS /KRAS [2, 6] | HRAS /KRAS (HRAS wild-type protein; ratio of KD value for HRAS wild-type protein to KD value for KRAS (SPR)) | NRAS /KRAS ([2]; ratio of KD value for GDP-bound NRAS wild-type protein to KD value for KRAS (SPR))
CCCN1C(=O)CN(C)C(=O)CN(CC)C(=O)[C@H]([C@@H](C)CC)NC(=O)[C@H](CC(C)C)N(C)C(=O)C[C@@H](C(=O)N2CCOCC2)N(C)C(=O)[C@H](C2CCCC2)N(C)C(=O)C2(CCCC2)NC(=O)[C@@H]2CC(C)(C)CN2C(=O)[C@H](CCc2ccc(C(F)(F)F)c(Cl)c2)NC(=O)CN(C)C(=O)[C@@H]1Cc1ccc(C(F)(F)F)cc1 [PP0450] ([NMeL]I[NEtG][Sar][NPrPhe(4-CF3)][Sar][hPhe(3-Cl-4-CF3)][Pro(4,4-Me2)][Ac5c][NMeGly(cPent)][NMeD]-Morpholide; lactam N-11) | C (A compound having a KD ratio of 0.1 or more and less than 3 is denoted as C) | 8.4 nM | B (a compound having 3 or more and less than 10 is denoted as B) |  |  |  | 
CCC[C@H]1C(=O)N[C@@H]([C@@H](C)CC)C(=O)N(C)CC(=O)N(C)[C@H]2C/C=C\CCN(C2=O)[C@@H](Cc2ccc(C)cc2)C(=O)N(C)CC(=O)N[C@@H](CCc2ccc(C(F)(F)F)c(OC)c2)C(=O)N2CC3(CC3)C[C@H]2C(=O)NC2(CC(C)(C)C2)C(=O)N(C)[C@@H](CC(F)(F)F)C(=O)N(C)[C@H](C(=O)N(C)C)CC(=O)N1C [PP3012] |  | 74.8 nM |  | A (a compound having 10 or more and less than 20 is denoted as A) | A (a compound having 10 or more and less than 20 is denoted as A) |  | 
CCCN1C(=O)CN(C)C(=O)CN(C)C(=O)[C@H]([C@@H](C)CC)NC(=O)[C@H](CC(C)C)N(C)C(=O)C[C@@H](C(=O)N(C)C)NC(=O)[C@H](C2CCCC2)N(C)C(=O)C2(CCC2)NC(=O)[C@@H]2CC(F)(F)CN2C(=O)[C@H](CCc2ccc(C(F)(F)F)c(Cl)c2)NC(=O)CN(C)C(=O)[C@@H]1Cc1ccc(C(F)(F)F)cc1 [PP0358] ([NMeL]I[Sar][Sar][NPrPhe(4-CF3)][Sar][hPhe(3-Cl-4-CF3)][Pro(4,4-F2)][Ac4c][NMeGly(cPent)]D-NMe2; lactam N-11) |  | 34.8 nM |  | C (A compound having a KD ratio of 0.1 or more and less than 3 is denoted as C) | B (a compound having 3 or more and less than 10 is denoted as B) |  | 
CCCN1C(=O)CN(C)C(=O)CN(CC)C(=O)[C@H]([C@@H](C)CC)NC(=O)[C@H](CC(C)C)N(C)C(=O)C[C@@H](C(=O)N2CCOCC2)N(C)C(=O)[C@H](C2CCCC2)N(C)C(=O)C2(CCCC2)NC(=O)[C@@H]2C[C@@H](OC)CN2C(=O)[C@H](CCc2ccc(C(F)(F)F)c(Cl)c2)NC(=O)CN(C)C(=O)[C@@H]1Cc1ccc(C(F)(F)F)cc1 [PP0296] ([NMeL]I[NEtG][Sar][NPrPhe(4-CF3)][Sar][hPhe(3-Cl-4-CF3)][Hyp](Me)[Ac5c][NMeGly(cPent)][NMeD]-Morpholide; lactam N-11) |  | 4.3 nM |  | C (A compound having a KD ratio of 0.1 or more and less than 3 is denoted as C) | B (a compound having 3 or more and less than 10 is denoted as B) |  | 
CC[C@H](C)[C@@H]1NC(=O)[C@H](CC(C)C)N(C)C(=O)C[C@@H](C(=O)N2CCOCC2)N(C)C(=O)[C@H](C2CCCC2)N(C)C(=O)C2(CCC2)NC(=O)[C@@H]2CC(F)(F)CN2C(=O)[C@H](CCc2cc(F)c(C(F)(F)F)c(F)c2)NC(=O)CN(C)C(=O)[C@H](Cc2ccc(C(F)(F)F)cc2)N2CCCCC[C@@H](C2=O)N(C)C(=O)CN(C)C1=O [PP0464] | B (a compound having 3 or more and less than 10 is denoted as B) | 17.6 nM | B (a compound having 3 or more and less than 10 is denoted as B) |  |  |  | 
CCCN1C(=O)CN(C)C(=O)[C@@H]2CCCN2C(=O)[C@H]([C@@H](C)CC)NC(=O)[C@H](CC(C)C)N(C)C(=O)C[C@@H](C(=O)N2CCOCC2)N(C)C(=O)[C@H](C2CCCC2)N(C)C(=O)C2(CCCC2)NC(=O)[C@@H]2CCCN2C(=O)[C@H](CCc2ccc(C(F)(F)F)c(Cl)c2)NC(=O)CN(C)C(=O)[C@@H]1Cc1ccc(C(F)(F)F)cc1 [PP0165] ([NMeL]IP[Sar][NPrPhe(4-CF3)][Sar][hPhe(3-Cl-4-CF3)]P[Ac5c][NMeGly(cPent)][NMeD]-Morpholide; lactam N-11) |  | 35 nM |  | B (a compound having 3 or more and less than 10 is denoted as B) | B (a compound having 3 or more and less than 10 is denoted as B) |  | 
CCC[C@H]1C(=O)N[C@@H]([C@@H](C)CC)C(=O)N(C)CC(=O)N(C)[C@H]2C/C=C\CCN(C2=O)[C@@H](Cc2ccc(C(F)(F)F)cc2)C(=O)N(C)CC(=O)N[C@@H](CCc2cc(F)c3c(c2)CCC3)C(=O)N2C[C@H](OCC)C[C@H]2C(=O)NC2(CC(C)(C)C2)C(=O)N(C)[C@@H](C2CCCC2)C(=O)N(C)[C@H](C(=O)N(C)C)CC(=O)N1C [PP2849] |  | 28.2 nM |  | A (a compound having 10 or more and less than 20 is denoted as A) | A (a compound having 10 or more and less than 20 is denoted as A) |  | 
CCC[C@H]1C(=O)N[C@@H]([C@@H](C)CC)C(=O)N(C)CC(=O)N(C)[C@H]2C/C=C\CCN(C2=O)[C@@H](Cc2ccc(C(F)(F)F)cc2)C(=O)N(C)CC(=O)N[C@@H](CCc2ccc(C(F)(F)F)c(OC)c2)C(=O)N2C[C@H](OCC)C[C@H]2C(=O)N(C)C2(CCC2)C(=O)N(C)[C@@H](C2CCCC2)C(=O)N(C)[C@H](C(=O)N(C)C)CC(=O)N1C [PP2312] | B (a compound having 3 or more and less than 10 is denoted as B) | 1.6 nM | A (a compound having 10 or more and less than 20 is denoted as A) |  |  |  | 
CC[C@H](C)[C@@H]1NC(=O)[C@H](CC)N(C)C(=O)C[C@@H](C(=O)N(C)C)N(C)C(=O)[C@H](C2CCCC2)N(C)C(=O)C2(CC(C)(C)C2)NC(=O)[C@@H]2C[C@H](C)CN2C(=O)[C@H](CCc2ccc(C(F)(F)F)c(Cl)c2)NC(=O)CN(C)C(=O)[C@H](Cc2ccc(C)cc2)N2CC/C=C\C[C@@H](C2=O)N(C)C(=O)CN(C)C1=O [PP1844] |  | 12.3 nM |  |  |  | B (a compound having 3 or more and less than 10 is denoted as B) | A (a compound having 10 or more and less than 20 is denoted as A)
CCC[C@H]1C(=O)N[C@@H]([C@@H](C)CC)C(=O)N(CCC)CC(=O)N(C)CC(=O)N(CCC)[C@@H](Cc2ccc(C(F)(F)F)cc2)C(=O)N(C)CC(=O)N[C@@H](CCc2ccc(C(F)(F)F)c(Cl)c2)C(=O)N2CCC[C@H]2C(=O)NC2(CCC2)C(=O)N(C)[C@@H](C2CCCC2)C(=O)N(C)[C@H](C(=O)N2CCOCC2)CC(=O)N1C [PP1947] ([NMeNva]I[NPrGly][Sar][NPrPhe(4-CF3)][Sar][hPhe(3-Cl-4-CF3)]P[Ac4c][NMeGly(cPent)][NMeD]-Morpholide; lactam N-11) | B (a compound having 3 or more and less than 10 is denoted as B) | 22 nM | B (a compound having 3 or more and less than 10 is denoted as B) |  |  |  | 
CC[C@H](C)[C@@H]1NC(=O)[C@H](CC2CC2)N(C)C(=O)C[C@@H](C(=O)N(C)C)N(C)C(=O)[C@H](C2CCCC2)N(C)C(=O)C2(CC(C)(C)C2)NC(=O)[C@@H]2C[C@H](C)CN2C(=O)[C@H](CCc2ccc(C(F)(F)F)c(OC)c2)NC(=O)CN(C)C(=O)[C@H](Cc2ccc(C)cc2)N2CC/C=C\C[C@@H](C2=O)N(C)C(=O)CN(C)C1=O [PP1898] | B (a compound having 3 or more and less than 10 is denoted as B) | 6.3 nM | B (a compound having 3 or more and less than 10 is denoted as B) |  |  |  | 
CC[C@H](C)[C@@H]1NC(=O)[C@H](C)N(C)C(=O)C[C@@H](C(=O)N(C)C)N(C)C(=O)[C@H](C2CCCC2)N(C)C(=O)C2(CCC2)NC(=O)[C@@H]2CC(F)(F)CN2C(=O)[C@H](CCc2cc(F)c(C(F)(F)F)c(F)c2)NC(=O)CN(C)C(=O)[C@H](Cc2ccc(C(F)(F)F)cc2)N2CCCC[C@@H](C2=O)N(C)C(=O)CN(C)C1=O [PP0584] | C (A compound having a KD ratio of 0.1 or more and less than 3 is denoted as C) | 7 nM | C (A compound having a KD ratio of 0.1 or more and less than 3 is denoted as C) |  |  |  | 
CCO[C@@H]1C[C@H]2C(=O)NC3(CC(C)(C)C3)C(=O)N(C)[C@@H](C3CCCC3)C(=O)N(C)[C@H](C(=O)N(C)C)CC(=O)N(C)[C@@H](CC(C)C)C(=O)N[C@@H]([C@@H](C)CC)C(=O)N(C)CC(=O)N(C)[C@H]3C/C=C\CCN(C3=O)[C@@H](Cc3ccc4c(c3)CCC4(F)F)C(=O)N(C)CC(=O)N[C@@H](CCc3ccc(C(F)(F)F)c(OC)c3)C(=O)N2C1 [PP2695] |  | 3.8 nM |  | B (a compound having 3 or more and less than 10 is denoted as B) | A (a compound having 10 or more and less than 20 is denoted as A) |  | 
CCO[C@@H]1C[C@H]2C(=O)NC3(CCC3)C(=O)N(C)[C@@H](C3CCCC3)C(=O)N(C)[C@H](C(=O)N(C)C)CC(=O)N(C)[C@@H](Cc3cccnc3)C(=O)N[C@@H]([C@@H](C)CC)C(=O)N(C)CC(=O)N(C)[C@H]3CCCCCN(C3=O)[C@@H](Cc3ccc(C(F)(F)F)cc3)C(=O)N(C)CC(=O)N[C@@H](CCc3cc(F)c(C(F)(F)F)c(F)c3)C(=O)N2C1 [PP0673] | B (a compound having 3 or more and less than 10 is denoted as B) | 52.5 nM | B (a compound having 3 or more and less than 10 is denoted as B) |  |  |  | 

From patent EP4603105A1, “PHARMACEUTICAL COMPOSITION CONTAINING CYCLIC COMPOUND HAVING SELECTIVE KRAS INHIBITORY EFFECT AGAINST HRAS AND NRAS” (CHUGAI SEIYAKU KABUSHIKI KAISHA, priority 2022, dated 2024)
